Assay results: PubChem BioAssay (NCI)
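Step 1: Grow cells in 96-well plates. Step 2: Expose to compound for 48 hours at 5 concentrations. Step 3: Interpolate endpoints linearly; if unreached, use highest concentration. TGI: concentration producing complete growth inhibition.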

How the values were obtained:
Experiment in all cases: NCI-60 cell line screen, 48 h
HOP-62 NSCLC = tested on: HOP-62 NSCLC
KM12 colon = tested on: KM12 colon
SW-620 colon = tested on: SW-620 colon
SK-OV-3 ovarian = tested on: SK-OV-3 ovarian
SF-295 CNS = tested on: SF-295 CNS
COLO 205 colon = tested on: COLO 205 colon
SR leukemia = tested on: SR leukemia
HCT-15 colon = tested on: HCT-15 colon
SF-539 CNS = tested on: SF-539 CNS
NCI-H23 lung = tested on: NCI-H23 lung
MOLT-4 leukemia = tested on: MOLT-4 leukemia
U251 CNS = tested on: U251 CNS
UACC-62 melanoma = tested on: UACC-62 melanoma
CAKI-1 renal = tested on: CAKI-1 renal
RXF 393 renal = tested on: RXF 393 renal
UO-31 renal = tested on: UO-31 renal
MCF7 breast = tested on: MCF7 breast
TK-10 renal = tested on: TK-10 renal
OVCAR-8 ovarian = tested on: OVCAR-8 ovarian
NCI/ADR-RES ovarian = tested on: NCI/ADR-RES ovarian
MDA-MB-435 = tested on: MDA-MB-435
HCC-2998 colon = tested on: HCC-2998 colon
M14 melanoma = tested on: M14 melanoma
MDA-MB-231 breast = tested on: MDA-MB-231 breast
PC-3 prostate = tested on: PC-3 prostate
HT29 colon = tested on: HT29 colon
MDA-N = tested on: MDA-N
HL-60(TB) leukemia = tested on: HL-60(TB) leukemia
SK-MEL-28 melanoma = tested on: SK-MEL-28 melanoma
NCI-H460 lung = tested on: NCI-H460 lung
RPMI-8226 leukemia = tested on: RPMI-8226 leukemia
OVCAR-3 ovarian = tested on: OVCAR-3 ovarian
CCRF-CEM leukemia = tested on: CCRF-CEM leukemia
K-562 leukemia = tested on: K-562 leukemia
SNB-75 CNS = tested on: SNB-75 CNS
DU-145 prostate = tested on: DU-145 prostate
SK-MEL-5 melanoma = tested on: SK-MEL-5 melanoma
NCI-H226 lung = tested on: NCI-H226 lung
LOX IMVI melanoma = tested on: LOX IMVI melanoma
UACC-257 melanoma = tested on: UACC-257 melanoma
HS 578T breast = tested on: HS 578T breast
T-47D breast = tested on: T-47D breast
ACHN renal = tested on: ACHN renal
SK-MEL-2 melanoma = tested on: SK-MEL-2 melanoma
SN12C renal = tested on: SN12C renal
786-0 renal = tested on: 786-0 renal
A498 renal = tested on: A498 renal
MALME-3M melanoma = tested on: MALME-3M melanoma
EKVX NSCLC = tested on: EKVX NSCLC
HOP-92 NSCLC = tested on: HOP-92 NSCLC
IGROV1 ovarian = tested on: IGROV1 ovarian
OVCAR-4 ovarian = tested on: OVCAR-4 ovarian
SF-268 CNS = tested on: SF-268 CNS
SNB-19 CNS = tested on: SNB-19 CNS
HCT-116 colon = tested on: HCT-116 colon
NCI-H522 lung = tested on: NCI-H522 lung
OVCAR-5 ovarian = tested on: OVCAR-5 ovarian
A549 NSCLC = tested on: A549 NSCLC

SMILES: CC(NNC(=S)N1CCCCCC1)c1cccnn1 (configuration not stated)
- TGI (HOP-62 NSCLC): > 32.5 µM
- TGI (KM12 colon): > 100 µM
- TGI (SW-620 colon): > 100 µM
- TGI (SK-OV-3 ovarian): 20.7 µM
- TGI (SF-295 CNS): > 39.6 µM
- TGI (COLO 205 colon): > 100 µM
- TGI (SR leukemia): > 100 µM
- TGI (HCT-15 colon): > 100 µM
- TGI (SF-539 CNS): 0.939 µM
- TGI (NCI-H23 lung): > 100 µM
- TGI (MOLT-4 leukemia): > 100 µM
- TGI (U251 CNS): > 80.4 µM
- TGI (UACC-62 melanoma): 1.14 µM
- TGI (CAKI-1 renal): > 100 µM
- TGI (RXF 393 renal): 0.57 µM
- TGI (UO-31 renal): 2.67 µM
- TGI (MCF7 breast): 0.901 µM
- TGI (TK-10 renal): > 33.3 µM
- TGI (OVCAR-8 ovarian): > 100 µM
- TGI (NCI/ADR-RES ovarian): > 88.8 µM
- TGI (MDA-MB-435): > 56.2 µM
- TGI (HCC-2998 colon): > 100 µM
- TGI (M14 melanoma): 4.94 µM
- TGI (MDA-MB-231 breast): > 100 µM
- TGI (PC-3 prostate): > 100 µM
- TGI (HT29 colon): > 100 µM
- TGI (MDA-N): > 100 µM
- TGI (HL-60(TB) leukemia): > 32.2 µM
- TGI (SK-MEL-28 melanoma): > 34.5 µM
- TGI (NCI-H460 lung): > 21.6 µM
- TGI (RPMI-8226 leukemia): > 100 µM
- TGI (OVCAR-3 ovarian): > 100 µM
- TGI (CCRF-CEM leukemia): 1.1 µM
- TGI (K-562 leukemia): > 58.7 µM
- TGI (SNB-75 CNS): > 43.4 µM
- TGI (DU-145 prostate): > 100 µM
- TGI (SK-MEL-5 melanoma): 2.31 µM
- TGI (NCI-H226 lung): > 43.4 µM
- TGI (LOX IMVI melanoma): > 100 µM
- TGI (UACC-257 melanoma): 3.77 µM
- TGI (HS 578T breast): > 100 µM
- TGI (T-47D breast): > 35.1 µM
- TGI (ACHN renal): 3.09 µM
- TGI (SK-MEL-2 melanoma): > 78.8 µM
- TGI (SN12C renal): > 100 µM
- TGI (786-0 renal): > 100 µM
- TGI (A498 renal): 9.82 µM
- TGI (MALME-3M melanoma): > 100 µM

SMILES: Cc1cc2c(c(C)c1O)C(C)(C)CN2C(=O)C(C)(C)C
- TGI (HOP-62 NSCLC): > 100 µM
- TGI (KM12 colon): > 100 µM
- TGI (SW-620 colon): > 100 µM
- TGI (SK-OV-3 ovarian): > 100 µM
- TGI (SF-295 CNS): > 100 µM
- TGI (EKVX NSCLC): > 100 µM
- TGI (COLO 205 colon): > 100 µM
- TGI (HOP-92 NSCLC): 78.5 µM
- TGI (IGROV1 ovarian): > 100 µM
- TGI (HCT-15 colon): > 100 µM
- TGI (SF-539 CNS): > 100 µM
- TGI (NCI-H23 lung): > 100 µM
- TGI (OVCAR-4 ovarian): > 100 µM
- TGI (MOLT-4 leukemia): > 100 µM
- TGI (U251 CNS): > 100 µM
- TGI (UACC-62 melanoma): > 100 µM
- TGI (RXF 393 renal): 86.9 µM
- TGI (SF-268 CNS): > 100 µM
- TGI (UO-31 renal): > 100 µM
- TGI (MCF7 breast): > 100 µM
- TGI (TK-10 renal): > 100 µM
- TGI (SNB-19 CNS): > 100 µM
- TGI (OVCAR-8 ovarian): > 100 µM
- TGI (NCI/ADR-RES ovarian): 41.2 µM
- TGI (MDA-MB-435): > 100 µM
- TGI (HCC-2998 colon): > 100 µM
- TGI (M14 melanoma): > 100 µM
- TGI (HCT-116 colon): > 100 µM
- TGI (NCI-H522 lung): > 100 µM
- TGI (MDA-MB-231 breast): > 100 µM
- TGI (PC-3 prostate): > 100 µM
- TGI (HT29 colon): > 100 µM
- TGI (MDA-N): > 100 µM
- TGI (HL-60(TB) leukemia): > 100 µM
- TGI (SK-MEL-28 melanoma): > 100 µM
- TGI (NCI-H460 lung): > 100 µM
- TGI (OVCAR-5 ovarian): > 100 µM
- TGI (RPMI-8226 leukemia): > 100 µM
- TGI (OVCAR-3 ovarian): 28.3 µM
- TGI (CCRF-CEM leukemia): > 100 µM
- TGI (K-562 leukemia): > 100 µM
- TGI (SNB-75 CNS): 89.2 µM
- TGI (DU-145 prostate): > 100 µM
- TGI (SK-MEL-5 melanoma): > 100 µM
- TGI (A549 NSCLC): > 100 µM
- TGI (NCI-H226 lung): > 100 µM
- TGI (LOX IMVI melanoma): > 100 µM
- TGI (UACC-257 melanoma): > 100 µM
- TGI (HS 578T breast): > 100 µM
- TGI (T-47D breast): > 100 µM
- TGI (ACHN renal): > 100 µM
- TGI (SN12C renal): > 100 µM
- TGI (786-0 renal): > 100 µM
- TGI (A498 renal): > 100 µM
